Columns and labels:
[1] = target: T1, F508delCFTR cell surface expression in CFBE41o-F508delCFTR-HRP cells (Homo sapiens, UniProt P13569, DEL508-508); test: Cell Surface Expression-Horse Radish Peroxidase (CSE-HRP) Assay; type: cell-based; conditions: for EC50: CFBE41o-F508delCFTR-HRP cells, 18-24 hours at 33° C., 8-point curve, highest concentration 20 μM; for Maximum % activity (%): maximum at any tested concentration, normalized to on-plate positive control (3 μM)
T1 construct: fused on or other part: Horseradish peroxidase (HRP) reporter inserted in the fourth exofacial (extracellular) loop of CFTR; expression is doxycycline-inducible
Outline: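 CFBE41o- cells with HRP-tagged F508delCFTR, expression induced by 0.5 μg/mL doxycycline for 72 h at 37 °C, then compound for 18-24 h at 33 °C (8-point, 3-fold, top 20 μM). Surface HRP measured by luminol luminescence; % activity normalised to 3 μM positive-control corrector; EC50 from variable-slope sigmoidal fit, three replicate plates.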

[2] = target: T2, F508delCFTR in primary hBE cells with F508del/F508del CFTR mutation (Homo sapiens, UniProt P13569, DEL508-508); test: Transepithelial Clamp Circuit on Human Bronchial Epithelial Cells Conductance Assay (hBE-TECC); type: cell-based; conditions: for EC50: primary hBE cells F508del/F508del, 18-24 hours at 37° C., equivalent short circuit current, 6 concentrations; for Maximum % activity (%): relative to positive control (3 μM) coupled with control potentiator
T2 construct: cells isolated from CF patients with the homozygous mutation; endogenous in cells; host or cells: primary human bronchial epithelial (hBE) cells from F508del/F508del CF patients
Source text: Transepithelial Clamp Circuit on Human Bronchial Epithelial Cells Conductance Assay:
A cell based assay using the primary human bronchial epithelial cells (hBE) was used as a secondary assay to test novel F508delCFTR correctors for their activity on primary hBE cells with F508del/F508del CFTR mutation. The assay used a TECC-24 (Transepithelial Clamp Circuit for 24 wells) instrument that measures the functionality of the mutated channel by measuring the equivalent short circuit current (Ieq) generated by the polarized epithelial cells. The instrument works by measuring the transepithelial potential difference (Vt) and transepithelial resistance (Rt) in an open circuit format, and the Ieq is calculated by using Ohms law (Ieq=Vt/Rt). The assay was run in a 24-well format and all 24-wells were measured at the same time point giving a higher throughput for this assay.
Primary human bronchial epithelial (hBE) cells from F508del/F508delCFTR patients were expanded from 1×10^6 to 250×10^6 cells (Neuberger T, Burton B, Clark H and VanGoor F; Cystic Fibrosis, Methods in Mole Biol 741; eds. Amaral M D and Kunzelmann K, 2011). For this purpose, cells isolated from CF patients with the homozygous mutation were seeded onto 24 well Corning (Cat #3378) filter plates that were coated with 3T3 conditioned media and grown at an air-liquid interface for 35 days using an Ultroser® G supplemented differentiation media. Apical surface mucus was removed 72 hours before the experiment using 3 mM dithiothreitol (DTT) in phosphate buffered saline (PBS). The apical surface was washed again 24 hours before the experiment using PBS. The cells were incubated with the desired dose response of the corrector compounds 18-24 hours at 37° C., 5% CO2. The corrector compounds are only added on the basolateral side of the epithelial cells.
On the day of measuring the corrector activity on the TECC, the cells were switched into a bicarbonate and serum free F-12 Coon's medium and allowed to equilibrate for 90 minutes in a CO2 free incubator. At the time of measurement, the apical and basolateral sides of the filter were bathed with the F-12 Coon's modification media (with 20 mM 4-(2-hydroxyethyl)-1-piperazineethanesulfonic acid (HEPES), pH 7.4 (using 1 M tris(hydroxymethyl)aminomethane (Tris)), and the measurements were made at 36.5° C. Transepithelial voltage (Vt) and transepithelial resistance (Rt) were measured using a 24 channel transepithelial current clamp (TECC-24). Current responses to the sequential addition of benzamil (apical 6 μM addition; for inhibiting epithelial ENaC channel), forskolin (apical and basolateral 10 μM addition; for activating the CFTR channel), control potentiator (N-(3-carbamoyl-5,5,7,7-tetramethyl-4,7-dihydro-5H-thieno[2,3-c]pyran-2-yl)-1H-pyrazole-5-carboxamide; apical and basolateral […] addition; for potentiating the CFTR channel) and bumetanide (basolateral 20 μM addition; for inhibiting the Na:2Cl:K co-transporter, an indirect measure of inhibiting the Cl-secretion driven by CFTR channel) were measured.
All plates contained negative controls (dimethyl sulfoxide, DMSO) which coupled with the control potentiator (N-(3-carbamoyl-5,5,7,7-tetramethyl-4,7-dihydro-5H-thieno[2,3-c]pyran-2-yl)-1H-pyrazole-5-carboxamide) sets the null response and positive controls (3 μM of 3-[(2R,4R)-4-({[1-(2,2-difluoro-1,3-benzodioxol-5-yl)cyclopropyl]carbonyl}amino)-7-methoxy-3,4-dihydro-2H-chromen-2-yl]benzoic acid) coupled with the control potentiator sets the 100% response to measure the correction of the mutated CFTR channel. The maximum percent activity is reported relative to the positive control value.
The % activity measured at each of the 6 test concentrations of the test compound was normalized to the on-plate positive control using the following formula: % activity=[[…]]*100 […]

T2 sequence (P13569 with tags, fused parts or gaps DEL508-508): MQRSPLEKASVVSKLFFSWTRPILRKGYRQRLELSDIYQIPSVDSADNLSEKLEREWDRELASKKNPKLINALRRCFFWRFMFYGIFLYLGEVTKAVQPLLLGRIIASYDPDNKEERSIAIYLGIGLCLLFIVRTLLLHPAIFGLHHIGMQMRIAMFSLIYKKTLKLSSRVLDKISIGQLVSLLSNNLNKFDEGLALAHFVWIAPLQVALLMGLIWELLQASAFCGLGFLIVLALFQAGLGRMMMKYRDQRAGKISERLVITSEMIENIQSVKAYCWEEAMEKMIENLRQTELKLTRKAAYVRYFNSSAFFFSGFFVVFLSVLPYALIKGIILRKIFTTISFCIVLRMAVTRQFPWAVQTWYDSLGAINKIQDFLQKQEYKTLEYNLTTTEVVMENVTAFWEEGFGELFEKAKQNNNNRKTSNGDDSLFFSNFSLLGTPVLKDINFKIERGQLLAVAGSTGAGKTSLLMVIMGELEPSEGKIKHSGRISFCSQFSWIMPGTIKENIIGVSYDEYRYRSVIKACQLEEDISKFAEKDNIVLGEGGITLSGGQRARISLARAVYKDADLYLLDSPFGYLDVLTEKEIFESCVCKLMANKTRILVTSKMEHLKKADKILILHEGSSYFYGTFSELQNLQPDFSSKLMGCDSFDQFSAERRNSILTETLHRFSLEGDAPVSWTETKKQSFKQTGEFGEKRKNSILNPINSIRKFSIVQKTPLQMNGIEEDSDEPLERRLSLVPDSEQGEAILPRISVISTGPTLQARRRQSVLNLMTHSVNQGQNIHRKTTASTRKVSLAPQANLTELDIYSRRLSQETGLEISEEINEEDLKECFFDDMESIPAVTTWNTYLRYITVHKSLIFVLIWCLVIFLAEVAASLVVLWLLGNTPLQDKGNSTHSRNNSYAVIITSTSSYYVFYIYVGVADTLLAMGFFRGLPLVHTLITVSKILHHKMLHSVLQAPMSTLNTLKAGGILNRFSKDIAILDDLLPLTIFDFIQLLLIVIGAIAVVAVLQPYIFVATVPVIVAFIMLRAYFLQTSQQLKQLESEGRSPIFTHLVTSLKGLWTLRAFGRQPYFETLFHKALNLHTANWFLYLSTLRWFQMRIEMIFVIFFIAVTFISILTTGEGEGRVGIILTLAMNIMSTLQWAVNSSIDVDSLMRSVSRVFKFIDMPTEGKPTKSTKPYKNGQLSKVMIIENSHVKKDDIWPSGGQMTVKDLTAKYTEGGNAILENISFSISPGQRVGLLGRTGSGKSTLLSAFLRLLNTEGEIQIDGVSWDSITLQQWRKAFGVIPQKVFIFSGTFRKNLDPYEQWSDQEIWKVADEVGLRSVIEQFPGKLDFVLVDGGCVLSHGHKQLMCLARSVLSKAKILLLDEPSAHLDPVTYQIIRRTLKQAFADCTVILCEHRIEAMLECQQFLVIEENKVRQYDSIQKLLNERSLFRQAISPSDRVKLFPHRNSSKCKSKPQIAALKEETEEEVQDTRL
T1 sequence (P13569 with tags, fused parts or gaps DEL508-508 limits assumed): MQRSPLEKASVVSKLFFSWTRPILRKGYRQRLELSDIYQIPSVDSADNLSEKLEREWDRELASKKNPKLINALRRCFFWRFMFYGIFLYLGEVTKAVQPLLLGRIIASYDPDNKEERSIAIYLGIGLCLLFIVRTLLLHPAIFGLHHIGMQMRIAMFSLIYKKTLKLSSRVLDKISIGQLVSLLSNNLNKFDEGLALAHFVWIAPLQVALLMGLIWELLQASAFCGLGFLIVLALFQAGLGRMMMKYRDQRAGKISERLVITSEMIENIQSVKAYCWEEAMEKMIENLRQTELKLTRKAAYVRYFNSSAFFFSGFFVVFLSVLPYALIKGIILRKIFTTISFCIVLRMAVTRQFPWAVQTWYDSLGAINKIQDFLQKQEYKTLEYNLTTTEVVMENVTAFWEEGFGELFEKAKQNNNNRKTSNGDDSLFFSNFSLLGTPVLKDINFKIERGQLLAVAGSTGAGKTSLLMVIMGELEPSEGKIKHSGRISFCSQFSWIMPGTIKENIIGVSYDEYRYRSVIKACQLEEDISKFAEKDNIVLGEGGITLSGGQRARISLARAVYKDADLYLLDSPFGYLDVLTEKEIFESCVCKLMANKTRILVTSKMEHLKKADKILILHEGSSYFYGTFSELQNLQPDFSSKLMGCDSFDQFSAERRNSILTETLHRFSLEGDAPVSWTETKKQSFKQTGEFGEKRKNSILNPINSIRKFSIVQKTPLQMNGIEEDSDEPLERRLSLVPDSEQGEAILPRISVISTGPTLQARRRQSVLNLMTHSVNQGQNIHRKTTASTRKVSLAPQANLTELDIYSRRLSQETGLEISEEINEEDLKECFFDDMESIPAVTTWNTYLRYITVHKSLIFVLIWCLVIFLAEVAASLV
T1 sequence (P13569 919-1480 limits assumed, stated change not applied): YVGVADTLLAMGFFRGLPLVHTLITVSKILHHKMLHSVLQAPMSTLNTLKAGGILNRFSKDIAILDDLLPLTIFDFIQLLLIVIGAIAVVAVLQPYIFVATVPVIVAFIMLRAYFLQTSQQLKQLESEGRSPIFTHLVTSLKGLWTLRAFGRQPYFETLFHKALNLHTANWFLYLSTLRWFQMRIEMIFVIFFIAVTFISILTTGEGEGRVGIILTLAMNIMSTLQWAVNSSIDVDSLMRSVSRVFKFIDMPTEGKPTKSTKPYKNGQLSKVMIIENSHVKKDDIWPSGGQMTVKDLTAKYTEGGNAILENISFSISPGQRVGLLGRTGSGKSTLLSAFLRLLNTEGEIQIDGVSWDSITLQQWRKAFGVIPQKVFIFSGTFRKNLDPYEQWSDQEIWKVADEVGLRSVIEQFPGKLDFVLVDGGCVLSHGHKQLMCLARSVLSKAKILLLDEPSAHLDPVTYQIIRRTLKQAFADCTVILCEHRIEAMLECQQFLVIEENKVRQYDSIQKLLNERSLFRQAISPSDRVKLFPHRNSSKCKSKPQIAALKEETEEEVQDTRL

SMILES | EC50 [1] | Maximum % activity (%) [1] | EC50 [2] | Maximum % activity (%) [2]
C[C@]1(C(=O)N[C@@H]2C[C@H]([C@H]3CC[C@H](C(=O)O)CC3)Oc3cc(OC(F)(F)F)ccc32)COc2cc3c(cc21)OC(F)(F)O3 [Example 150, trans-4-[(2R,4R)-4-{[(7R)-2,2-difluoro-7-methyl-6,7-dihydro-2H-furo[2,3-f][1,3]benzodioxole-7-carbonyl]amino}-7-(trifluoromethoxy)-3,4-dihydro-2H-1-benzopyran-2-yl]cyclohexane-1-carboxylic acid] | 26 nM | 145% | 10 nM | 94%
C[C@]1(C(=O)N[C@@H]2C[C@H]([C@H]3CC[C@H](C(=O)O)CC3)Oc3cc(OC(F)F)ccc32)COc2cc3c(cc21)OC(F)(F)O3 [Example 160, trans-4-[(2R,4R)-7-(difluoromethoxy)-4-{[(7R)-2,2-difluoro-7-methyl-6,7-dihydro-2H-furo[2,3-f][1,3]benzodioxole-7-carbonyl]amino}-3,4-dihydro-2H-1-benzopyran-2-yl]cyclohexane-1-carboxylic acid] | 44 nM | 136% | 5 nM | 85%
C[C@]1(C(=O)N[C@@H]2C[C@H](C3(C(=O)O)CC3)Oc3cc(OC(F)(F)F)ccc32)COc2cc3c(cc21)OC(F)(F)O3 [Example 166, 1-[(2R,4R)-4-{[(7R)-2,2-difluoro-7-methyl-6,7-dihydro-2H-furo[2,3-f][1,3]benzodioxole-7-carbonyl]amino}-7-(trifluoromethoxy)-3,4-dihydro-2H-1-benzopyran-2-yl]cyclopropane-1-carboxylic acid] | 30 nM | 129% | 11 nM | 84%
C[C@]1(C(=O)N[C@@H]2C[C@H]([C@H]3CC[C@H](C(=O)O)CC3)Oc3cc(OC(F)(F)F)ccc32)CCc2cc3c(cc21)OC(F)(F)O3 [Example 167, trans-4-[(2R,4R)-4-{[(5S)-2,2-difluoro-5-methyl-6,7-dihydro-2H,5H-indeno[5,6-d][1,3]dioxole-5-carbonyl]amino}-7-(trifluoromethoxy)-3,4-dihydro-2H-1-benzopyran-2-yl]cyclohexane-1-carboxylic acid] | 53 nM | 135% | 87 nM | 112%
COc1ccc2c(c1)O[C@@H]([C@H]1CC[C@H](C(=O)O)CC1)C[C@H]2NC(=O)[C@@]1(C)CCc2cc3c(cc21)OC(F)(F)O3 [Example 168, trans-4-[(2R,4R)-4-{[(5S)-2,2-difluoro-5-methyl-6,7-dihydro-2H,5H-indeno[5,6-d][1,3]dioxole-5-carbonyl]amino}-7-methoxy-3,4-dihydro-2H-1-benzopyran-2-yl]cyclohexane-1-carboxylic acid] | 161 nM | 127% | 43 nM | 101%
C[C@]1(C(=O)Nc2cc3cc(C4(CO)CCC4)[nH]c3cc2F)COc2cc3c(cc21)OC(F)(F)O3 [Example 172, (7R)-2,2-difluoro-N-{6-fluoro-2-[1-(hydroxymethyl)cyclobutyl]-1H-indol-5-yl}-7-methyl-6,7-dihydro-2H-furo[2,3-f][1,3]benzodioxole-7-carboxamide] | 950 nM | 210% | 98 nM | 50%
COc1ccc2c(c1)O[C@@H](c1ccc(CO)cn1)C[C@H]2NC(=O)[C@@]1(C)COc2cc3c(cc21)OC(F)(F)O3 [Example 174, (7R)-2,2-difluoro-N-{(2R,4R)-2-[5-(hydroxymethyl)pyridin-2-yl]-7-methoxy-3,4-dihydro-2H-1-benzopyran-4-yl}-7-methyl-6,7-dihydro-2H-furo[2,3-f][1,3]benzodioxole-7-carboxamide] | 120 nM | 118% | 15 nM | 94%
COc1ccc2c(c1)O[C@@H](c1cnc(C(O)CO)cn1)C[C@H]2NC(=O)[C@@]1(C)COc2cc3c(cc21)OC(F)(F)O3 (stereo partly drawn) [Example 175, (7R)—N-{(2R,4R)-2-[5-(1,2-dihydroxyethyl)pyrazin-2-yl]-7-methoxy-3,4-dihydro-2H-1-benzopyran-4-yl}-2,2-difluoro-7-methyl-6,7-dihydro-2H-furo[2,3-f][1,3]benzodioxole-7-carboxamide] | 220 nM | 139% | 43 nM | 107%

Further molecules by falling EC50 [1], results first:

EC50 [1] | Maximum % activity (%) [1] | EC50 [2] | Maximum % activity (%) [2] | SMILES
712 nM | 120% | 20 nM | 86% | C[C@]1(C(=O)N[C@@H]2C[C@H]([C@H]3CC[C@@H](C(=O)O)CC3)Oc3cc(OC(F)(F)F)ccc32)COc2cc3c(cc21)OC(F)(F)O3 [Example 162, cis-4-[(2R,4R)-4-{[(7R)-2,2-difluoro-7-methyl-6,7-dihydro-2H-furo[2,3-f][1,3]benzodioxole-7-carbonyl]amino}-7-(trifluoromethoxy)-3,4-dihydro-2H-1-benzopyran-2-yl]cyclohexane-1-carboxylic acid]
660 nM | 92% | 352 nM | 45% | CC1(c2cc3cc(NC(=O)[C@@]4(C)COc5cc6c(cc54)OC(F)(F)O6)c(F)cc3n2C[C@@H](O)CO)COC1 [Example 171, (7R)—N-{1-[(2R)-2,3-dihydroxypropyl]-6-fluoro-2-(3-methyloxetan-3-yl)-1H-indol-5-yl}-2,2-difluoro-7-methyl-6,7-dihydro-2H-furo[2,3-f][1,3]benzodioxole-7-carboxamide]
92 nM | 137% | 20 nM | 102% | COc1ccc2c(c1)O[C@@H]([C@H]1CC[C@H](C(=O)O)CC1)C[C@H]2NC(=O)[C@@]1(C)COc2cc3c(cc21)OC(F)(F)O3 [Example 155, trans-4-[(2R,4R)-4-{[(7R)-2,2-difluoro-7-methyl-6,7-dihydro-2H-furo[2,3-f][1,3]benzodioxole-7-carbonyl]amino}-7-methoxy-3,4-dihydro-2H-1-benzopyran-2-yl]cyclohexane-1-carboxylic acid]
12 nM | 132% | 7.6 nM | 93% | C[C@]1(C(=O)N[C@@H]2C[C@H](c3ccc(C(=O)O)cn3)Oc3cc(OC(F)F)ccc32)COc2cc3c(cc21)OC(F)(F)O3 [Example 151, 6-[(2R,4R)-7-(difluoromethoxy)-4-{[(7R)-2,2-difluoro-7-methyl-6,7-dihydro-2H-furo[2,3-f][1,3]benzodioxole-7-carbonyl]amino}-3,4-dihydro-2H-1-benzopyran-2-yl]pyridine-3-carboxylic acid]

From US9840513B2 (AbbVie S.à.r.l., priority 2015, dated 2017)
